Results on 19 molecules are retold here after PubChem BioAssay AID248 (DTP/NCI, 2004).

For the experiment, the system named is L1210 leukemia ip in BDF1 mice, survival T/C. The experiment in a line: NCI In Vivo Anticancer Drug Screen. Data for tumor model L1210 Leukemia (intraperitoneal) in B6D2F1 (BDF1) mice. Conditions: endpoint: mean survival time, higher = longer survival. How it is done: The antitumor activity of compounds was measured in mice bearing transplantable tumors. Survival or tumor size were measured and the results are expressed as the measurement made in the treated group (T) divided by the measurement made in the vehicle treated control group (C). The tumor model used in this assay is L1210 Leukemia (intraperitoneal) in B6D2F1 (BDF1) mice

[1] abbreviates: dose: 100.0 mg/kg/injection, schedule: Q04DX003 (ip), vehicle: saline.
[2] abbreviates: dose: 100.0 mg/kg/injection, schedule: Q04DX002 (ip), vehicle: saline with Tween-80.
The mark [3] stands for this setting: dose: 200.0 mg/kg/injection, schedule: Q04DX002 (ip), vehicle: saline with Tween-80.
[4] abbreviates: dose: 400.0 mg/kg/injection, schedule: Q04DX002 (ip), vehicle: saline with Tween-80.
[5] abbreviates: dose: 100.0 mg/kg/injection, schedule: Q01DX001 (ip), vehicle: saline.
Setting [6] is: dose: 200.0 mg/kg/injection, schedule: Q01DX001 (ip), vehicle: saline.
Where [7] appears, read: dose: 100.0 mg/kg/injection, schedule: Q01DX009 (ip), vehicle: saline with Tween-80.
[8] abbreviates: dose: 200.0 mg/kg/injection, schedule: Q01DX009 (ip), vehicle: saline with Tween-80.
Setting [9] is: dose: 400.0 mg/kg/injection, schedule: Q01DX001 (ip), vehicle: saline.
[10] abbreviates: dose: 100.0 mg/kg/injection, schedule: Q01DX009 (ip), vehicle: Klucel (hydroxypropylcellulose) (HPC).
Where [11] appears, read: dose: 100.0 mg/kg/injection, schedule: Q04DX003 (ip), vehicle: Klucel (hydroxypropylcellulose) (HPC).
The mark [12] stands for this setting: dose: 200.0 mg/kg/injection, schedule: Q01DX009 (ip), vehicle: Klucel (hydroxypropylcellulose) (HPC).
Where [13] appears, read: dose: 200.0 mg/kg/injection, schedule: Q04DX003 (ip), vehicle: Klucel (hydroxypropylcellulose) (HPC).
Where [14] appears, read: dose: 400.0 mg/kg/injection, schedule: Q04DX003 (ip), vehicle: Klucel (hydroxypropylcellulose) (HPC).

SMILES strings stand for the structures. Values joined by “and” are separate entries in the source; they are usually repeats but may differ in a detail not shown here. Equal values may be shown once. Toxic doses and inconclusive results are not listed.

Consider `[O]=[Sn]([c]1ccccc1)[c]1ccccc1`, for which, for the setting “dose: 64.0 mg/kg/injection, schedule: Q04DX002 (ip), vehicle: saline with Tween-80”, the T/C was 313 % of control.

With `CC1(C)OCC2OC(N)C(O)C2O1` (stereo not drawn), the T/C under setting [1] is 100 % of control; the T/C (dose: 200.0 mg/kg/injection, schedule: Q04DX003 (ip), vehicle: saline) is 89 % of control; the T/C (dose: 400.0 mg/kg/injection, schedule: Q04DX003 (ip), vehicle: saline) was 98 % of control.

Take `CCCCCCCC(CCCCCC)(OO)C(=O)OC` (stereo not drawn): the T/C reads like this: (dose: 25.0 mg/kg/injection, schedule: Q04DX002 (ip), vehicle: saline with Tween-80) 100 % of control; (dose: 50.0 mg/kg/injection, schedule: Q04DX002 (ip), vehicle: saline with Tween-80) 95 % of control; under setting [2], 91 % of control.

For `CN(C)NC(=O)/C=C\C(=O)O`, the T/C under setting [2] is 93 % of control, the T/C under setting [3] was 100 % of control and the T/C under setting [4] was 93 % of control.

Regarding `COc1cc(C=O)c([N+](=O)[O-])cc1OC`, the T/C is 102 % of control under setting [5] and 102 % of control under setting [6].

`O=C(N/N=C/c1cccc(F)c1)c1ccc(Cl)cc1`: the T/C runs as follows: (dose: 50.0 mg/kg/injection, schedule: Q01DX009 (ip), vehicle: saline with Tween-80) 94 % of control; under setting [7], 91 % of control; under setting [8], 94 % of control.

`CCOC(=O)Nc1cc(NC(c2ccccc2)c2ccccc2)c([N+](=O)[O-])c(NC/C(C)=N/NC(N)=O)n1`: the T/C was 95 % of control (dose: 100.0 mg/kg/injection, schedule: Q01DX001 (ip), vehicle: carboxymethylcellulose (CMC)); 93 % of control (dose: 200.0 mg/kg/injection, schedule: Q01DX001 (ip), vehicle: carboxymethylcellulose (CMC)); 89 % of control (dose: 400.0 mg/kg/injection, schedule: Q01DX001 (ip), vehicle: carboxymethylcellulose (CMC)).

For `C/C(=C1/SC(=S)NC1=O)c1ccccc1`, under setting [5], the T/C was 102 % of control.

Consider `CCN(C(=O)c1ccc2c3c(cccc13)C=C2)c1ccccc1`, for which the T/C runs as follows: under setting [5], 104 % of control; under setting [6], 98 % of control; under setting [9], 98 % of control.

On to `Cc1c[n+]([O-])ccc1[N+](=O)[O-]`, for which the T/C was 90 % of control (dose: 25.0 mg/kg/injection, schedule: Q01DX009 (ip), vehicle: saline); 105 % of control (dose: 25.0 mg/kg/injection, schedule: Q04DX003 (ip), vehicle: saline); 90 % of control (dose: 50.0 mg/kg/injection, schedule: Q01DX009 (ip), vehicle: saline); 97 % of control (dose: 50.0 mg/kg/injection, schedule: Q04DX003 (ip), vehicle: saline); 88 % of control (dose: 100.0 mg/kg/injection, schedule: Q01DX009 (ip), vehicle: saline); 90 % of control and 91 % of control under setting [1].

Regarding `Cc1ccc(NC(=O)Oc2ccc(F)cc2Cl)cc1NC(=O)Oc1ccc(F)cc1Cl`, the T/C is 91 % of control under setting [7]; 95 % of control (dose: 100.0 mg/kg/injection, schedule: Q04DX003 (ip), vehicle: saline with Tween-80); 100 % of control under setting [8]; 88 % of control (dose: 200.0 mg/kg/injection, schedule: Q04DX003 (ip), vehicle: saline with Tween-80); 86 % of control (dose: 400.0 mg/kg/injection, schedule: Q01DX009 (ip), vehicle: saline with Tween-80); 95 % of control (dose: 400.0 mg/kg/injection, schedule: Q04DX003 (ip), vehicle: saline with Tween-80).

Consider `[Cl][Sn]([c]1cccc2ccccc12)([c]1cccc2ccccc12)[c]1cccc2ccccc12`, for which the T/C under setting [2] is 98 % of control, the T/C under setting [3] is 102 % of control and the T/C under setting [4] is 87 % of control.

For `O=C(Cc1ccc([N+](=O)[O-])cc1)NCCc1ccc2c(c1)OCO2`, the T/C is 96 % of control under setting [5], 102 % of control under setting [6] and 100 % of control under setting [9].

Turning to `c1ccc(CC2CCCCCC2)cc1`, the T/C is 96 % of control under setting [10]; 100 % of control under setting [11]; 101 % of control (dose: 150.0 mg/kg/injection, schedule: Q01DX009 (ip), vehicle: Klucel (hydroxypropylcellulose) (HPC)); 102 % of control under setting [12]; 91 % of control under setting [13]; 96 % of control under setting [14].

Take `COc1ccc(C(=O)N2CCN(C)CC2)cc1OC`: the T/C under setting [5] is 101 % of control, the T/C under setting [6] was 101 % of control and the T/C under setting [9] is 97 % of control.

Regarding `CCOC(=O)CCC(NC(=O)c1ccc(N(C)S(=O)(=O)c2ccc(C)cc2)c(F)c1)C(=O)OCC` (stereo not drawn), the T/C is, setting by setting: (dose: 75.0 mg/kg/injection, schedule: Q01DX001 (ip), vehicle: saline) 100 % of control; (dose: 75.0 mg/kg/injection, schedule: Q04DX003 (ip), vehicle: saline) 103 % of control; (dose: 150.0 mg/kg/injection, schedule: Q01DX001 (ip), vehicle: saline) 98 % of control; (dose: 150.0 mg/kg/injection, schedule: Q04DX003 (ip), vehicle: saline) 95 % of control; (dose: 300.0 mg/kg/injection, schedule: Q01DX001 (ip), vehicle: saline) 96 % of control; (dose: 300.0 mg/kg/injection, schedule: Q04DX003 (ip), vehicle: saline) 103 % of control.

With `CCOP(=S)(OCC)OP(=S)(OCC)OCC`, the T/C was 108 % of control (dose: 1.0 mg/kg/injection, schedule: Q01DX009 (ip), vehicle: other); 100 % of control (dose: 1.0 mg/kg/injection, schedule: Q04DX003 (ip), vehicle: other); 90 % of control (dose: 2.0 mg/kg/injection, schedule: Q01DX009 (ip), vehicle: other); 97 % of control (dose: 2.0 mg/kg/injection, schedule: Q04DX003 (ip), vehicle: other); 100 % of control (dose: 4.0 mg/kg/injection, schedule: Q04DX003 (ip), vehicle: other).

Turning to `C=C1CC2(CCCC3(CC(=C)C(=O)O3)C2(C)C)OC1=O` (stereo not drawn), the T/C is 102 % of control under setting [5] and 119 % of control under setting [6].

Consider `CC(=O)c1ccccc1I`, for which the T/C runs as follows: under setting [10], 94 % of control; under setting [11], 100 % of control; under setting [12], 97 % of control; under setting [13], 94 % of control; (dose: 400.0 mg/kg/injection, schedule: Q01DX009 (ip), vehicle: Klucel (hydroxypropylcellulose) (HPC)) 103 % of control; under setting [14], 95 % of control.
